Experiment [1] relates to HULLK. The experiment can be described thus: qPCR of HULLK (LCK E11, LCK 3'UTR) in cytoplasmic and nuclear fractions of LNCaP cells. Format: cell-based, human. The conditions noted are these: 1 nM R1881, 24 hrs. The protocol: FIGS. 3A and 3B illustrate the results of studies designed to characterize HULLK. […] LNCaP cells were seeded for 48 hrs and treated with 1 nM R1881 for 24 hrs. RNA was collected and cDNA was synthesized using strand-specific primers. qPCR was performed with two independent LCK primer sets that amplify HULLK, n=3. […] LNCaP cells were seeded for 48 hrs and treated with 1 nM R1881 for 24 hrs. Whole cell lysates were separated into cytoplasmic and nuclear fractions by centrifugation. RNA was collected from each fraction and cDNA was synthesized using the iScript cDNA synthesis kit. qPCR was performed with two independent LCK primer sets that amplify HULLK, and cytoplasmic and nuclear control genes, n=3.
Some lncRNAs show preferential accumulation in the cytoplasm or nucleus, while other lncRNAs are equally expressed in both compartments. To determine the intracellular localization of HULLK, total RNA was collected to synthesize cDNA from cytoplasmic and nuclear fractions of LNCaP cells starved of hormone or exposed to 1 nM R1881 for 24 hrs and carried out qPCR with LCK E11 and LCK 3′UTR primers to amplify HULLK.
For orientation: Real-time PCR tracks product formation cycle by cycle.

The subject of experiment [2] is LNCaP, C4-2, and Rv1 cells. The experiment can be described thus: CyQuant growth assay 7 days after viral transduction. The conditions noted are these: 0.05 nM R1881; LNCaP, C4-2, and Rv1 cells; day 7. Format: cell-based, human. The source says: FIG. 5A illustrates the gene structure of LCK and location of each shRNA targeting LCK. MISSION shRNAs targeting human LCK (NM_005356) and the pLKO vector control were purchased from ThermoFisher. Each shRNA was validated for efficiency of LCK or HULLK knockdown in Jurkat and PCa cells by qPCR. (C) The results of CyQuant Assay measuring DNA content as a surrogate for cell number 7 days after shRNA transduction is shown in FIG. 5C. Growth was compared to untreated empty vector control and the values were averaged across biological replicates. Error bars represent standard error of the mean. The relative effect of four independent shRNAs on cell growth in LNCaP, C42, and Rv1 cells in the absence or presence of 0.05 nM R1881, n=3. FIG. 5D plots the data for the relative effect of HULLK overexpression on cell growth in LNCaP, C42, and Rv1 cells in the absence or presence of 0.05 nM R1881, n=3. Statistical analysis was performed using ANOVA and Tukey test.
CyQuant Growth Assays: Assay was performed as previously described (18). Briefly, shRNA or pLKO control virus was added to 1 μg/ml fibronectin-coated 96 well plates. Cells were plated in RPMI-1640 plus 5% CSS with vehicle, 0-0.05 nM R1881, and/or 10 μM Enzalutamide (Selleck Chemicals). Quantification was performed on Day 7 using a BioTek Synergy 2 plate reader.
To explore the functional role of HULLK in PCa, the effects of HULLK knockdown on PCa cell growth was examined. LNCaP, C4-2, and Rv1 cells were transduced with lentiviral particles expressing four independent shRNAs specific for LCK or pLKO empty vector control in the presence or absence of 0.05 nM R1881. Two shRNAs were targeting the carboxy-terminal of LCK (shLCK-3 and shLCK-4) and should decrease HULLK levels; and two shRNAs were directed toward the amino-terminal (shLCK-1 and shLCK-2) and should not affect HULLK expression (FIG. 5A). […] As a control, all four shRNAs efficiently knocked LCK down 60-90% in Jurkat cells. Seven days following viral transduction, cellular growth was measured using CyQuant, which uses DNA content as a surrogate for cell number. In the absence of hormone, the four shRNAs had no dramatic effects on growth in LNCaP or C4-2 cells (FIG. 5C).
The complement experiment of evaluating the effects of overexpressing HULLK on cell growth was also performed. LNCaP, C4-2, and Rv1 cells were transduced with lentivirus expressing either vector or HULLK constructs in the presence or absence of 0.05 nM R1881, and proliferation was calculated seven days following viral transduction.

For the compound `C[C@]1(O)CC[C@H]2[C@@H]3CCC4=CC(=O)CCC4=C3C=C[C@@]21C` [R1881], in experiment [1] (cytoplasmic fraction), the “hormone increase of LCK 3'UTR transcript levels” value is recorded as ~7.6 fold and the “hormone increase of LCK E11 transcript levels” value was “approximately 5.3 fold”. In experiment [1] (nuclear fraction), the “nuclear transcript amounts (LCK E11, LCK 3'UTR) in response to androgens” value is given as “not influenced by androgens”. Further, in experiment [2], the “cell growth of vector-expressing control cells exposed to R1881” value is “expected increase in cell growth”.

The record behind these values is patent US12319967B2, “Methods and compositions for diagnosing and treating prostate cancer based on long noncoding RNA overlapping the LCK gene that regulates prostate cancer cell growth” (University of Virginia Patent Foundation, priority 2019, dated 2025).
